Laboratory results: ChEMBL document CHEMBL1157172, “Rational design, synthesis, and in vivo evaluation of the antileukemic activity of six new alkylating steroidal esters” (Bioorg Med Chem, 2008)
The source made the active and inactive calls. The rule behind the calls is not given here.

What was measured:
P388 [1] = experiment: Increase in median life span in BDF1 mouse bearing P388 cells at 30 mg/kg/day, ip relative to corn oil; format: functional; details: route intraperitoneal
L1210 [2] = experiment: Increase in median life span in BDF1 mouse L1210 cells at 30 mg/kg/day, ip relative to corn oil; format: functional; details: route intraperitoneal
L1210 [3] = experiment: Antitumor activity in BDF1 mouse L1210 cells assessed as mean survival days at 30 mg/kg/day, ip; format: functional; details: route intraperitoneal
P388 [4] = experiment: Antitumor activity in BDF1 mouse bearing P388 cells assessed as mean survival days at 30 mg/kg/day, ip; format: functional; details: route intraperitoneal
[5] = (§1) Acute toxicity in ip dosed BALB/c mouse after 30 days; format: organism-based; details: BALB/c, in vivo
Mus musculus = experiment: as §1; format: organism-based; details: in vivo, 720 h
L1210 [6] = experiment: Antitumor activity in BDF1 mouse L1210 cells assessed as number of cured mouse at 30 mg/kg/day, ip after 90 days; format: functional, organism-based
P388 [7] = experiment: Antitumor activity in BDF1 mouse bearing P388 cells assessed as number of cured mouse at 200 mg/kg/day, ip after 90 days; format: functional, organism-based
P388 [8] = experiment: Increase in median life span in BDF1 mouse bearing P388 cells at 200 mg/kg/day, ip relative to corn oil; format: functional; details: route intraperitoneal
L1210 [9] = experiment: Antitumor activity in BDF1 mouse L1210 cells assessed as mean survival days at 200 mg/kg/day, ip; format: functional; details: route intraperitoneal
L1210 [10] = experiment: Antitumor activity in BDF1 mouse L1210 cells assessed as number of cured mouse at 200 mg/kg/day, ip after 90 days; format: functional, organism-based
L1210 [11] = experiment: Increase in median life span in BDF1 mouse L1210 cells at 200 mg/kg/day, ip relative to corn oil; format: functional; details: route intraperitoneal
P388 [12] = experiment: Antitumor activity in BDF1 mouse bearing P388 cells assessed as mean survival days at 200 mg/kg/day, ip; format: functional; details: route intraperitoneal
L1210 [13] = experiment: Antitumor activity in BDF1 mouse L1210 cells assessed as number of cured mouse at 50 mg/kg/day, ip after 90 days; format: functional, organism-based
P388 [14] = experiment: Antitumor activity in BDF1 mouse bearing P388 cells assessed as number of cured mouse at 50 mg/kg/day, ip after 90 days; format: functional, organism-based
P388 [15] = experiment: Antitumor activity in BDF1 mouse bearing P388 cells assessed as mean survival days at 50 mg/kg/day, ip; format: functional; details: route intraperitoneal
L1210 [16] = experiment: Increase in median life span in BDF1 mouse L1210 cells at 50 mg/kg/day, ip relative to corn oil; format: functional; details: route intraperitoneal
L1210 [17] = experiment: Antitumor activity in BDF1 mouse L1210 cells assessed as mean survival days at 50 mg/kg/day, ip; format: functional; details: route intraperitoneal
P388 [18] = experiment: Increase in median life span in BDF1 mouse bearing P388 cells at 50 mg/kg/day, ip relative to corn oil; format: functional; details: route intraperitoneal
P388 [19] = experiment: Antitumor activity in BDF1 mouse bearing P388 cells assessed as number of cured mouse at 12.5 mg/kg/day, ip after 90 days; format: functional, organism-based
L1210 [20] = experiment: Increase in median life span in BDF1 mouse L1210 cells at 12.5 mg/kg/day, ip relative to corn oil; format: functional; details: route intraperitoneal
P388 [21] = experiment: Increase in median life span in BDF1 mouse bearing P388 cells at 12.5 mg/kg/day, ip relative to corn oil; format: functional; details: route intraperitoneal
L1210 [22] = experiment: Antitumor activity in BDF1 mouse L1210 cells assessed as number of cured mouse at 12.5 mg/kg/day, ip after 90 days; format: functional, organism-based
L1210 [23] = experiment: Antitumor activity in BDF1 mouse L1210 cells assessed as mean survival days at 12.5 mg/kg/day, ip; format: functional; details: route intraperitoneal
P388 [24] = experiment: Antitumor activity in BDF1 mouse bearing P388 cells assessed as mean survival days at 12.5 mg/kg/day, ip; format: functional; details: route intraperitoneal
L1210 [25] = experiment: Antitumor activity in BDF1 mouse L1210 cells assessed as number of cured mouse at 7.5 mg/kg/day, ip after 90 days; format: functional, organism-based
P388 [26] = experiment: Antitumor activity in BDF1 mouse bearing P388 cells assessed as number of cured mouse at 7.5 mg/kg/day, ip after 90 days; format: functional, organism-based
P388 [27] = experiment: Antitumor activity in BDF1 mouse bearing P388 cells assessed as mean survival days at 7.5 mg/kg/day, ip; format: functional; details: route intraperitoneal
L1210 [28] = experiment: Increase in median life span in BDF1 mouse L1210 cells at 7.5 mg/kg/day, ip relative to corn oil; format: functional; details: route intraperitoneal
L1210 [29] = experiment: Antitumor activity in BDF1 mouse L1210 cells assessed as mean survival days at 7.5 mg/kg/day, ip; format: functional; details: route intraperitoneal
P388 [30] = experiment: Increase in median life span in BDF1 mouse bearing P388 cells at 7.5 mg/kg/day, ip relative to corn oil; format: functional; details: route intraperitoneal
L1210 [31] = experiment: Antitumor activity in BDF1 mouse L1210 cells assessed as number of cured mouse at 120 mg/kg/day, ip after 90 days; format: functional, organism-based
P388 [32] = experiment: Antitumor activity in BDF1 mouse bearing P388 cells assessed as mean survival days at 120 mg/kg/day, ip; format: functional; details: route intraperitoneal
L1210 [33] = experiment: Antitumor activity in BDF1 mouse L1210 cells assessed as mean survival days at 120 mg/kg/day, ip; format: functional; details: route intraperitoneal
L1210 [34] = experiment: Increase in median life span in BDF1 mouse L1210 cells at 120 mg/kg/day, ip relative to corn oil; format: functional; details: route intraperitoneal
P388 [35] = experiment: Increase in median life span in BDF1 mouse bearing P388 cells at 120 mg/kg/day, ip relative to corn oil; format: functional; details: route intraperitoneal
P388 [36] = experiment: Antitumor activity in BDF1 mouse bearing P388 cells assessed as mean survival days at 22 mg/kg/day, ip; format: functional; details: route intraperitoneal
P388 [37] = experiment: Antitumor activity in BDF1 mouse bearing P388 cells assessed as number of cured mouse at 22 mg/kg/day, ip after 90 days; format: functional, organism-based
L1210 [38] = experiment: Antitumor activity in BDF1 mouse L1210 cells assessed as number of cured mouse at 22 mg/kg/day, ip after 90 days; format: functional, organism-based
P388 [39] = experiment: Increase in median life span in BDF1 mouse bearing P388 cells at 22 mg/kg/day, ip relative to corn oil; format: functional; details: route intraperitoneal
L1210 [40] = experiment: Increase in median life span in BDF1 mouse L1210 cells at 22 mg/kg/day, ip relative to corn oil; format: functional; details: route intraperitoneal
L1210 [41] = experiment: Antitumor activity in BDF1 mouse L1210 cells assessed as mean survival days at 22 mg/kg/day, ip; format: functional; details: route intraperitoneal

## CC(=O)N[C@H]1CC[C@H]2[C@@H]3NC(=O)C=C4C[C@@H](OC(=O)Cc5ccc(N(CCCl)CCCl)cc5)CC[C@]4(C)[C@H]3CC[C@]12C
P388 [1]
  Activity: 221%
L1210 [2]
  Activity: 144.4%
L1210 [3]
  Survival: 15.6 days
P388 [4]
  Survival: 21 days
[5]
  LD50 at 720 h: 80 mg/kg
Mus musculus
  LD10: 60 mg/kg
L1210 [6]
  Activity: inactive

## CC(=O)N[C@H]1CC[C@H]2[C@@H]3C(=O)C=C4C[C@@H](OC(=O)c5ccc(C)c(N(CCCl)CCCl)c5)CC[C@]4(C)[C@H]3CC[C@]12C
P388 [7]
  Activity: inactive
P388 [8]
  Activity: 153%
L1210 [9]
  Survival: 13.7 days
L1210 [10]
  Activity: inactive
[5]
  LD50 at 720 h: 600 mg/kg
Mus musculus
  LD10: 400 mg/kg
L1210 [11]
  Activity: 127%
P388 [12]
  Survival: 14.6 days

## CC(=O)N[C@H]1CC[C@H]2[C@@H]3NC(=O)C=C4C[C@@H](OC(=O)CCCc5ccc(N(CCCl)CCCl)cc5)CC[C@]4(C)[C@H]3CC[C@]12C
L1210 [13]
  Activity: inactive
P388 [14]
  Activity: inactive
P388 [15]
  Survival: 22 days
L1210 [16]
  Activity: 140.7%
[5]
  LD50 at 720 h: 180 mg/kg
Mus musculus
  LD10: 100 mg/kg
L1210 [17]
  Survival: 15.2 days
P388 [18]
  Activity: 231%

## CC(=O)N[C@H]1CC[C@H]2[C@@H]3C(=O)C=C4C[C@@H](OC(=O)Cc5ccc(N(CCCl)CCCl)cc5)CC[C@]4(C)[C@H]3CC[C@]12C
P388 [19]
  Activity: inactive
L1210 [20]
  Activity: 243%
P388 [21]
  Activity: 314%
L1210 [22]
  Activity: inactive
L1210 [23]
  Survival: 26.3 days
[5]
  LD50 at 720 h: 75 mg/kg
Mus musculus
  LD10: 25 mg/kg
P388 [24]
  Survival: 29.8 days

## O=C(O)CCCc1ccc(N(CCCl)CCCl)cc1 [CHLORAMBUCIL]
L1210 [25]
  Activity: inactive
P388 [26]
  Activity: inactive
P388 [27]
  Survival: 14.7 days
L1210 [28]
  Activity: 114%
L1210 [29]
  Survival: 12.3 days
[5]
  LD50 at 720 h: 24 mg/kg
Mus musculus
  LD10: 15 mg/kg
P388 [30]
  Activity: 155%

## CC(=O)N[C@H]1CC[C@H]2[C@@H]3NC(=O)C=C4C[C@@H](OC(=O)c5ccc(C)c(N(CCCl)CCCl)c5)CC[C@]4(C)[C@H]3CC[C@]12C
L1210 [31]
  Activity: inactive
P388 [32]
  Survival: 28.5 days
L1210 [33]
  Survival: 20.5 days
L1210 [34]
  Activity: 189.8%
P388 [35]
  Activity: 300%
[5]
  LD50 at 720 h: 280 mg/kg
Mus musculus
  LD10: 240 mg/kg

## CC(=O)N[C@H]1CC[C@H]2[C@@H]3C(=O)C=C4C[C@@H](OC(=O)CCCc5ccc(N(CCCl)CCCl)cc5)CC[C@]4(C)[C@H]3CC[C@]12C
P388 [36]
  Survival: 18.8 days
P388 [37]
  Activity: inactive
L1210 [38]
  Activity: inactive
P388 [39]
  Activity: 198%
[5]
  LD50 at 720 h: 87 mg/kg
Mus musculus
  LD10: 44 mg/kg
L1210 [40]
  Activity: 150%
L1210 [41]
  Survival: 16.2 days
